Reference: patent EP3046573B1, “AMYLIN ANALOGUES” (Zealand Pharma A/S, priority 2013, dated 2015)
Numbered stars: 1 amine (or outer) side, 2 acyl side, 3 side chain; on linkers, the order of the positions; unused ones are H or OH. Bridge positions count the residues as written; N and C are the ends. Square brackets hold non-standard residues; d marks the D form. Peptide text beside a SMILES is read from it. * marks the point of attachment. C20 diacid = O=C(O)CCCCCCCCCCCCCCCCCCC(=O)*; C18 diacid = O=C(O)CCCCCCCCCCCCCCCCC(=O)*; γGlu = O=C(O)[C@H](CCC(=O)[*:2])N[*:1]; NMeI = CC[C@H](C)[C@H](NC)C(=O)O; Sar = CNCC(=O)O

Assays:
[1] = target: T1, human calcitonin receptor (hCTR2) (Homo sapiens, UniProt P30988); assay: hCTR2 assay: induction of cAMP (AlphaScreen cAMP Assay kit) in COS7 cells expressing hCTR2; format: cell-based
T1 construct: expressed in transfected cells
T1 sequence (P30988 25-474): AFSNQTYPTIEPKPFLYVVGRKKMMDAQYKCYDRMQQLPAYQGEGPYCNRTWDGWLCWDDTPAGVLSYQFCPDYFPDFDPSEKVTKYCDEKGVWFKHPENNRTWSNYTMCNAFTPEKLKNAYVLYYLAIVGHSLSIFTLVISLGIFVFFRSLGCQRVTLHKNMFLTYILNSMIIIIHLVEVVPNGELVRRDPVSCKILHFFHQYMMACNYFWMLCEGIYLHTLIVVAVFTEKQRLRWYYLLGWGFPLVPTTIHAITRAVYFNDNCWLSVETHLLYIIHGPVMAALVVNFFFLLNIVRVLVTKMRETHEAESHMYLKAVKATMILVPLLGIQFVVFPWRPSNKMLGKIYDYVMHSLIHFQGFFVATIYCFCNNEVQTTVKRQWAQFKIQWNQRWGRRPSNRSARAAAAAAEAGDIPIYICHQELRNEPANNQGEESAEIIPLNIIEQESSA
In short: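 Stable RAMP-naive COS7 clone expressing hCTR2 was stimulated with increasing peptide concentrations in Tyrode buffer (pH 7.4) with 100 µM IBMX and 0.1% casein for 15 min at 37° C. Cells were lysed and cAMP measured by AlphaScreen. EC50 and efficacy relative to pramlintide came from 4PL curve fits.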

[2] = Solubility assessment (turbidity absorbance at 325 nm); format: physicochemical; settings: stock 2 mg/ml diluted 1:1, ambient temperature (typically 25°C), n=1; for Solubility, Acetate buffer pH 4: 100 mM acetate buffer pH 4.0; for Solubility, Acetate buffer pH 5: 100 mM acetate buffer pH 5.0; for Solubility, Histidine buffer pH 6: 100 mM histidine buffer pH 6.0; for Solubility, Histidine buffer pH 7: 100 mM histidine buffer pH 7.0; for Solubility, Phosphate buffer pH 6: 100 mM phosphate buffer pH 6.0; for Solubility, Phosphate buffer pH 7: 100 mM phosphate buffer pH 7.0; for Solubility, Phosphate buffer pH 7.5: 100 mM phosphate buffer pH7.5
In short: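 Peptide stock (2 mg/ml, water pH 2.5) diluted 1:1 into 100 mM acetate (pH 4.0, 5.0), histidine (pH 6.0, 7.0) or phosphate (pH 6.0–7.5) buffer; absorbance at 325 nm read at about 25°C, n=1. A325 ≤ 0.02 taken as solubility ≥ 1 mg/ml.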

SMILES: CC[C@H](C)[C@@H](C(=O)N[C@@H](CC(C)C)C(=O)N[C@H](CO)C(=O)N[C@@H](CO)C(=O)N[C@H](C(=O)N[C@@H](CC(N)=O)C(=O)N[C@H](C(=O)NCC(=O)N[C@@H](CO)C(=O)N[C@@H](CC(N)=O)C(=O)N[C@H](C(=O)N1CCC[C@H]1C(N)=O)[C@@H](C)O)C(C)C)[C@@H](C)O)N(C)C(=O)[C@H](C)NC(=O)CN(C)C(=O)[C@@H](Cc1ccccc1)NC(=O)[C@H](CC(N)=O)NC(=O)[C@H](CC(N)=O)NC(=O)[C@H](CO)NC(=O)[C@H](CO)NC(=O)[C@H](Cc1c[nH]cn1)NC(=O)[C@H](Cc1c[nH]cn1)NC(=O)[C@H](CC(C)C)NC(=O)[C@H](Cc1ccccc1)NC(=O)[C@H](CCC(=O)O)NC(=O)[C@H](C)NC(=O)[C@H](CC(C)C)NC(=O)[C@H](CCCNC(=N)N)NC(=O)[C@H](CCC(N)=O)NC(=O)[C@@H](NC(=O)[C@H](C)NC(=O)[C@@H]1CSSC[C@H](NC(=O)[C@H](CCCNC(=N)N)NC(=O)CC[C@H](NC(=O)CCCCCCCCCCCCCCCCCCC(=O)O)C(=O)O)C(=O)N[C@@H](CC(N)=O)C(=O)N[C@@H]([C@@H](C)O)C(=O)N[C@@H](C)C(=O)N[C@@H]([C@@H](C)O)C(=O)N1)[C@@H](C)O [Compound 59, [19CD]-isoGlu-RC()NTATC()ATQRLAEFLHHSSNN-DPhe-Gly(Me)-A-Ile(Me)-L-DSer-STNVGSNTP-NH2] ({C20 diacid-γGlu}-RCNTATCATQRLAEFLHHSSNN[dF][Sar]A[NMeI]L[dS]STNVGSNTP-NH2; disulfide 2-7)
- EC50 [1]: 0.14 nM
- Solubility, Acetate buffer pH 4 [2]: SS (SS indicates solubility ≥ 1mg/ml)
- Solubility, Acetate buffer pH 5 [2]: SS (SS indicates solubility ≥ 1mg/ml)
- Solubility, Histidine buffer pH 6 [2]: SS (SS indicates solubility ≥ 1mg/ml)
- Solubility, Histidine buffer pH 7 [2]: SS (SS indicates solubility ≥ 1mg/ml)
- Solubility, Phosphate buffer pH 6 [2]: SS (SS indicates solubility ≥ 1mg/ml)
- Solubility, Phosphate buffer pH 7 [2]: II (II indicates solubility ≤ 1 mg/ml)
- Solubility, Phosphate buffer pH 7.5 [2]: SS (SS indicates solubility ≥ 1mg/ml)

SMILES: CC[C@H](C)[C@@H](C(=O)N[C@@H](CC(C)C)C(=O)N[C@@H](CO)C(=O)N[C@@H](CO)C(=O)N[C@H](C(=O)N[C@@H](CC(N)=O)C(=O)N[C@H](C(=O)NCC(=O)N[C@@H](CO)C(=O)N[C@@H](CC(N)=O)C(=O)N[C@H](C(=O)N1CCC[C@H]1C(N)=O)[C@@H](C)O)C(C)C)[C@@H](C)O)N(C)C(=O)[C@H](C)NC(=O)CN(C)C(=O)[C@H](Cc1ccccc1)NC(=O)[C@H](CC(N)=O)NC(=O)[C@H](CC(N)=O)NC(=O)[C@H](CO)NC(=O)[C@H](CO)NC(=O)[C@H](Cc1c[nH]cn1)NC(=O)[C@H](CC(C)C)NC(=O)[C@H](Cc1ccccc1)NC(=O)[C@H](CCC(=O)O)NC(=O)[C@H](C)NC(=O)[C@H](CC(C)C)NC(=O)[C@H](CCCNC(=N)N)NC(=O)[C@H](CCC(N)=O)NC(=O)[C@@H](NC(=O)[C@H](C)NC(=O)[C@@H]1CSSC[C@H](NC(=O)[C@H](CCCNC(=N)N)NC(=O)CC[C@H](NC(=O)CCCCCCCCCCCCCCCCCCC(=O)O)C(=O)O)C(=O)N[C@@H](CC(N)=O)C(=O)N[C@@H]([C@@H](C)O)C(=O)N[C@@H](C)C(=O)N[C@@H]([C@@H](C)O)C(=O)N1)[C@@H](C)O [Compound 39, [19CD]-isoGlu-RC()NTATC()ATQRLAEFLHSSNNF-Gly(Me)-A-Ile(Me)-LSSTNVGSNTP-NH2] ({C20 diacid-γGlu}-RCNTATCATQRLAEFLHSSNNF[Sar]A[NMeI]LSSTNVGSNTP-NH2; disulfide 2-7)
- EC50 [1]: 0.19 nM
- Solubility, Acetate buffer pH 4 [2]: SS (SS indicates solubility ≥ 1mg/ml)
- Solubility, Acetate buffer pH 5 [2]: SS (SS indicates solubility ≥ 1mg/ml)
- Solubility, Histidine buffer pH 6 [2]: SS (SS indicates solubility ≥ 1mg/ml)
- Solubility, Histidine buffer pH 7 [2]: SS (SS indicates solubility ≥ 1mg/ml)
- Solubility, Phosphate buffer pH 6 [2]: SS (SS indicates solubility ≥ 1mg/ml)
- Solubility, Phosphate buffer pH 7 [2]: SS (SS indicates solubility ≥ 1mg/ml)
- Solubility, Phosphate buffer pH 7.5 [2]: SS (SS indicates solubility ≥ 1mg/ml)

SMILES: CC[C@H](C)[C@@H](C(=O)N[C@@H](CC(C)C)C(=O)N[C@@H](CO)C(=O)N[C@@H](CO)C(=O)N[C@H](C(=O)N[C@@H](CC(N)=O)C(=O)N[C@H](C(=O)NCC(=O)N[C@@H](CO)C(=O)N[C@@H](CC(N)=O)C(=O)N[C@H](C(=O)N1CCC[C@H]1C(N)=O)[C@@H](C)O)C(C)C)[C@@H](C)O)N(C)C(=O)[C@H](C)NC(=O)CN(C)C(=O)[C@H](Cc1ccccc1)NC(=O)[C@H](CC(N)=O)NC(=O)[C@H](CC(N)=O)NC(=O)[C@H](CO)NC(=O)[C@H](CO)NC(=O)[C@H](CCCNC(=N)N)NC(=O)[C@H](Cc1c[nH]cn1)NC(=O)[C@H](CC(C)C)NC(=O)[C@H](Cc1ccccc1)NC(=O)[C@H](CCC(=O)O)NC(=O)[C@H](C)NC(=O)[C@H](CC(C)C)NC(=O)[C@H](CCCNC(=N)N)NC(=O)[C@H](CCC(N)=O)NC(=O)[C@@H](NC(=O)[C@H](C)NC(=O)[C@@H]1CSSC[C@H](NC(=O)[C@H](CCCNC(=N)N)NC(=O)CC[C@H](NC(=O)CCCCCCCCCCCCCCCCC(=O)O)C(=O)O)C(=O)N[C@@H](CC(N)=O)C(=O)N[C@@H]([C@@H](C)O)C(=O)N[C@@H](C)C(=O)N[C@@H]([C@@H](C)O)C(=O)N1)[C@@H](C)O [Compound 89, [17CD]-isoGlu-RC()NTATC()ATQRLAEFLHRSSNNF-Gly(Me)-A-Ile(Me)-LSSTNVGSNTP-NH2] ({C18 diacid-γGlu}-RCNTATCATQRLAEFLHRSSNNF[Sar]A[NMeI]LSSTNVGSNTP-NH2; disulfide 2-7)
- EC50 [1]: 0.054 nM
- Solubility, Acetate buffer pH 4 [2]: SS (SS indicates solubility ≥ 1mg/ml)
- Solubility, Acetate buffer pH 5 [2]: SS (SS indicates solubility ≥ 1mg/ml)
- Solubility, Histidine buffer pH 6 [2]: SS (SS indicates solubility ≥ 1mg/ml)
- Solubility, Histidine buffer pH 7 [2]: SS (SS indicates solubility ≥ 1mg/ml)
- Solubility, Phosphate buffer pH 6 [2]: SS (SS indicates solubility ≥ 1mg/ml)
- Solubility, Phosphate buffer pH 7 [2]: SS (SS indicates solubility ≥ 1mg/ml)
- Solubility, Phosphate buffer pH 7.5 [2]: SS (SS indicates solubility ≥ 1mg/ml)

SMILES: CC[C@H](C)[C@@H](C(=O)N[C@@H](CC(C)C)C(=O)N[C@@H](CO)C(=O)N[C@@H](CO)C(=O)N[C@H](C(=O)N[C@@H](CC(N)=O)C(=O)N[C@H](C(=O)NCC(=O)N[C@@H](CO)C(=O)N[C@@H](CC(N)=O)C(=O)N[C@H](C(=O)N1CCC[C@H]1C(N)=O)[C@@H](C)O)C(C)C)[C@@H](C)O)N(C)C(=O)[C@H](C)NC(=O)CN(C)C(=O)[C@H](Cc1ccccc1)NC(=O)[C@H](CC(N)=O)NC(=O)[C@H](CC(N)=O)NC(=O)[C@H](CO)NC(=O)[C@H](Cc1c[nH]cn1)NC(=O)[C@H](Cc1c[nH]cn1)NC(=O)[C@H](CC(C)C)NC(=O)[C@H](Cc1ccccc1)NC(=O)[C@H](CCC(=O)O)NC(=O)[C@H](C)NC(=O)[C@H](CC(C)C)NC(=O)[C@H](CCCNC(=N)N)NC(=O)[C@H](CCC(N)=O)NC(=O)[C@@H](NC(=O)[C@H](C)NC(=O)[C@@H]1CSSC[C@H](NC(=O)[C@H](CCCNC(=N)N)NC(=O)CC[C@H](NC(=O)CCCCCCCCCCCCCCCCCCC(=O)O)C(=O)O)C(=O)N[C@@H](CC(N)=O)C(=O)N[C@@H]([C@@H](C)O)C(=O)N[C@@H](C)C(=O)N[C@@H]([C@@H](C)O)C(=O)N1)[C@@H](C)O [Compound 45, [19CD]-isoGlu-RC()NTATC()ATQRLAEFLHHSNNF-Gly(Me)-A-Ile(Me)-LSSTNVGSNTP-NH2] ({C20 diacid-γGlu}-RCNTATCATQRLAEFLHHSNNF[Sar]A[NMeI]LSSTNVGSNTP-NH2; disulfide 2-7)
- EC50 [1]: 0.14 nM
- Solubility, Acetate buffer pH 4 [2]: II (II indicates solubility ≤ 1 mg/ml)
- Solubility, Acetate buffer pH 5 [2]: II (II indicates solubility ≤ 1 mg/ml)
- Solubility, Histidine buffer pH 6 [2]: II (II indicates solubility ≤ 1 mg/ml)
- Solubility, Histidine buffer pH 7 [2]: II (II indicates solubility ≤ 1 mg/ml)
- Solubility, Phosphate buffer pH 6 [2]: II (II indicates solubility ≤ 1 mg/ml)
- Solubility, Phosphate buffer pH 7 [2]: II (II indicates solubility ≤ 1 mg/ml)
- Solubility, Phosphate buffer pH 7.5 [2]: II (II indicates solubility ≤ 1 mg/ml)
